In patent US7528159B2, “5-aryl pyridines as 11-beta inhibitors for the treatment of diabetes” (Hoffmann-La Roche Inc., priority 2004, dated 2009):

Biological target: T1, human 11beta-HSD1 (Homo sapiens, UniProt P28845)
T1 construct: made in house; host or cells: HEK293 cells (ATCC CRL-1573), transient transfection with lipofectamine; microsomal fraction used
Test: Microsome assay (cortisone to cortisol conversion, ELISA)
Type: biochemical
Conditions: microsomes from HEK293 cells transiently expressing human 11beta-HSD1; 60 min, 37° C.; read-out: h 11-beta-HSD 1 IC50
Method: The cDNA encoding the human 11beta-HSD1 protein was cloned into the expression vector pcDNA3 (Stratagene). This construct (for details see Alex Odermatt et al.; J Biol. Chem., 1999, Vol. 274, Issue 40, 28762-28770) was used to transiently express the protein in HEK293 cells (ATCC number: CRL-1573, described in Graham, F. L., Smiley, J., Russell, W. C., Nairn, R.; (1977)) using lipofectamine. 48 h after transfection cells were washed twice with ice-cold PBS (Phosphate buffered Saline). To 1 volume of cell suspension in PBS 2 volumes of ice-cold lysis buffer (50 mM Tris; pH7.5; 1 mM EDTA; 100 mM NaCl) were added. The cells were lysed by Potter-homogenization (20 strokes). The resulting homogenate was sonicated with a tip sonicator (10% output; 2×30 sec.) and cleared by a low speed centrifugation (10 min×9000 g; 4° C.). The microsomal fraction was collected by a high speed centrifugation (60 min×110'000 g). […]
Microsomes isolated from HEK293 cells transiently expressing human 11beta-HSD1 (for details see above) were incubated in assay buffer (100 mM NaCl; 1 mM EDTA; 1 mM EGTA; 1 mM MgCl; 250 mM Sucrose; 20 mM Tris pH 7.4; Cortisone 50-200 nM and NADPH 1 mM) together with different concentrations of test substances. […] The amount of Cortisol produced in this assay was determined using a commercially available, ELISA-based Cortisol-detection kit (Distributed by Assay Design, Inc.). […]

T1 sequence (P28845 whole entry): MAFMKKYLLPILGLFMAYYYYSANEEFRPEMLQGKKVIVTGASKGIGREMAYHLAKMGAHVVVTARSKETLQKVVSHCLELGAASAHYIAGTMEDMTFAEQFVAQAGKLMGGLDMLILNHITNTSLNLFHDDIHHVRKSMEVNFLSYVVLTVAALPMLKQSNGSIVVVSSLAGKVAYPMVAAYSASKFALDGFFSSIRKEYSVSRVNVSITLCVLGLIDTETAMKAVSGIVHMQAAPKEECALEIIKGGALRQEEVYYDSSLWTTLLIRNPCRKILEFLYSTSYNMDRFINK

Row | IC50 | SMILES
1 | 12 nM | Cc1cc(F)ccc1-c1ccc(NS(=O)(=O)c2cccc(Cl)c2)nc1C [Example 110, 3-Chloro-N-[5-(4-fluoro-2-methyl-phenyl)-6-methyl-pyridin-2-yl]-benzenesulfonamide]
2 | 3 nM | Cc1c(Cl)cccc1S(=O)(=O)Nc1ccc(-c2ccccc2Cl)cn1 [Example 2, 3-chloro-N-[5-(2-chloro-phenyl)-pyridin-2-yl]-2-methyl-benzenesulfonamide]
